This is an account of results in PubChem BioAssay (NCI).

Assay in all cases: inhibition of tumour cell growth, NCI panel, 48 h
Assay [1] concerns COLO 205 colon.
The test system of assay [2] is U251 CNS.
The test system of assay [3] is HCT-116 colon.
The test system of assay [4] is SK-MEL-2 melanoma.
In assay [5] the test system is SF-268 CNS.
Assay [6] concerns KM12 colon.
The test system of assay [7] is RXF 393 renal.
Assay [8] relates to MALME-3M melanoma.
For assay [9], the system named is HL-60(TB) leukemia.
In assay [10] the test system is HOP-62 NSCLC.

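Protocol summary: plate cells (96-well), add compound at 5 concentrations, incubate 48 h, interpolate endpoints linearly. TGI denotes the concentration required for complete inhibition of growth.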 Where a SMILES comes first, the peptide text is derived from it. [ ]: non-standard residue; d: D form. The star is where a group is joined. ξ: configuration not given here. ξPhe(4-NO2) = NC(Cc1ccc([N+](=O)[O-])cc1)C(=O)O; Boc = CC(C)(C)OC(=O)*; OBn = c1ccc(CO*)cc1 Where only a bound is given, the exact number is not on record here.

With `Cn1cc2c(=O)n3ncn(-c4ccc(Br)cc4)c3nc2n1`, the TGI in [1], in [2], in assay [3], in assay [4], in [5] and in assay [6] was > 100 µM each time. In addition, the TGI in assay [7], in [8] and in assay [9] was > 100 µM in each case.

In the case of `CC1(C)C=C(/C=N/Nc2ccc(Br)cc2)C(C#N)=C(O)C1(C#N)C#N`, the TGI in assay [1] was 36.8 µM; in [3], > 100 µM; in [5], > 100 µM; in assay [10], > 100 µM; in assay [6] it was > 100 µM; in assay [7], 91.3 µM. For the same compound, the TGI in assay [8] was > 100 µM; in assay [9], 88.1 µM.

As to `COc1cc(C)cc2c1C(=O)C(Br)=CC2=O`, the TGI in [1] worked out at 3.23 µM; in assay [2], 37.4 µM; in assay [3], 18.6 µM; in assay [4] it was 29.4 µM; in assay [5] it was 35.8 µM; in [10], 32.5 µM. Besides, the figures for the TGI in assay [6], in assay [7] and in [8] were 28.8 µM, 8.36 µM and 4.73 µM, respectively.

Take `C=C(C)[C@@H]1CC[C@@H](C)[C@](O)([C@@H]2C[C@@H]([C@H](COC(=O)c3ccccc3)OC(=O)c3ccccc3)OC2=O)C1`: the TGI in assay [1], in [2], in [3], in assay [4], in assay [5] and in [10] was > 100 µM throughout. Also, the TGI in [6], in [7] and in assay [8] was > 100 µM in each case.

For `COc1ccc(C2CC(=O)Oc3ccccc3O2)cc1` (stereo not drawn), the TGI in [1], in [2], in [3], in assay [5], in assay [10] and in [6] was > 100 µM in each case. Moreover, the TGI in [7] and in assay [9] was > 100 µM each time.

`CCCCCC(=O)OCC(=O)[C@H]1[C@H](C)C[C@H]2[C@@H]3C[C@H](F)C4=C/C(=N/OC(=O)c5cccc6c(=O)c7ccccc7[nH]c56)C=C[C@]4(C)[C@H]3[C@@H](O)C[C@@]21C`: the TGI in assay [1] is 72.8 µM; in assay [2] it was > 100 µM; in assay [3] it was 85.3 µM; in [4] it was 76.8 µM; in [5] it was > 100 µM; in assay [10] it was > 100 µM. Moreover, the TGI in assay [6] is 27.3 µM; in [8], 33.2 µM; in [9], > 100 µM.

As to `COC(=O)C(/C(=N/N)C(=O)Nc1cc(Cl)c(Cl)cc1Cl)c1nc2ccc(Cl)cc2[nH]c1=O` (stereo not drawn), the TGI in [2], in [3], in [4], in [5], in assay [10] and in [6] was > 100 µM each time. Also, the TGI in [7], in [8] and in assay [9] was > 100 µM each time.

Take `C=CCNC(=O)/C(Cc1cc(Br)c(OC)c(Br)c1O)=N\O`: the TGI in assay [1] is 26 µM; in assay [2] it was 39.8 µM; in [3] it was 12.7 µM; in assay [4], 44.5 µM; in [5], 15.7 µM; in assay [10], 22.9 µM. Further, the TGI in [6] came out at 19.8 µM; in assay [8], 17.3 µM; in assay [9], 5.43 µM.

`CC(=O)c1c(O)ccc2c1CC(CC=O)O2` (stereo not drawn): the TGI in [1] is > 100 µM; in assay [2], > 100 µM; in assay [3], 41.4 µM; in [5], > 100 µM; in assay [10], > 100 µM; in assay [6], > 100 µM. The TGI in assay [7], in assay [8] and in assay [9] was > 100 µM throughout.

As to `O=c1oc2cc(O)ccc2c(O)c1C(c1ccccn1)c1c(O)c2ccc(O)cc2oc1=O`, the TGI in [1], in assay [2], in [3], in assay [4], in assay [5] and in assay [10] was > 100 µM throughout. For the same compound, the TGI in [6] and in [7] was > 100 µM each time.

For `COc1ccc(Nc2nc(N)c(C(=O)c3ccc(OC)cc3)s2)cc1`, the TGI in [1] was > 100 µM; in assay [2] it was 17.2 µM; in [3], > 28.9 µM; in assay [4] it was > 55.4 µM; in assay [5] it was > 100 µM; in assay [7], 4.55 µM. Also, the TGI in assay [9] was determined as 0.802 µM.

Consider `O=C(O)c1cc(-c2ccccc2O)nc2ccccc12`, for which the TGI in [1], in assay [2], in assay [3], in assay [4], in assay [5] and in assay [10] was > 100 µM each time. For the same compound, the TGI in [6] and in [8] was > 100 µM in each case.

For `C/C(=N\NC(=O)/C(C#N)=C\c1ccc(N(CCC#N)CCC#N)cc1)c1ccccc1`, the TGI in assay [1], in assay [3], in [5], in assay [10], in assay [6] and in assay [7] was > 10 µM throughout. Besides, the TGI in assay [8] and in [9] was > 10 µM throughout.

Turning to `CC(C)(C)OC(=O)NC(Cc1ccc([N+](=O)[O-])cc1)C(=O)NCC(=O)OCc1ccccc1` (stereo not drawn) (Boc-[ξPhe(4-NO2)]-Gly-OBn), the TGI in assay [1] amounted to 32.3 µM; in [2], 40.6 µM; in [3], 68.2 µM; in assay [5], 38.6 µM; in [10], 36.7 µM; in assay [6] it was 59 µM. The TGI in [7] is 53.1 µM; in assay [8], 61.9 µM; in assay [9] it was > 100 µM.

Consider `O=C1/C(=C/c2ccc(Cl)cc2)NC(=S)N1CN1CCOCC1`, for which the TGI in [1], in assay [2], in [3], in [4], in assay [5] and in assay [10] was > 100 µM throughout. In addition, the TGI in assay [6] and in [8] was > 100 µM in each case.

For `COc1ccc(OC)c(NC(=O)C(=O)Nn2c(=S)[nH]c3ccccc3c2=O)c1`, the TGI in [2], in assay [3], in [4], in assay [5], in [10] and in assay [6] was > 100 µM throughout. The TGI in assay [7], in assay [8] and in assay [9] was > 100 µM in each case.

As for `CCOc1ccc(N/C(=C(/C(Cl)=C(/Cl)NCCO)[N+](=O)[O-])n2nnc3ccccc32)cc1`, the TGI in assay [1] was 29.7 µM; in [2], 58.7 µM; in assay [3] it was > 100 µM; in assay [4], > 100 µM; in assay [5], 41 µM; in [10], > 100 µM. Besides, the TGI in assay [6] is > 100 µM; in assay [7], 31.7 µM; in assay [8], 32.4 µM.

In the case of `CN1CC2=C(NC(=S)NC2c2ccc(Cl)cc2)/C(=C/c2ccc(Cl)cc2)C1` (stereo not drawn), the TGI in assay [1] was 33.3 µM; in [2], 33.3 µM; in assay [3], 29.2 µM; in assay [4], 30.2 µM; in assay [5], 50.4 µM; in assay [10], 36.4 µM. The TGI in assay [6] was determined as 38.2 µM; in assay [8] it was 36.8 µM; in assay [9], 48 µM.

For the compound `CCOC(=O)c1nc2ccc(Cl)cc2c2c1CCO2`, the TGI in assay [1], in [2], in assay [3], in [5], in assay [10] and in [6] was > 100 µM throughout. Also, the TGI in [7], in assay [8] and in assay [9] was > 100 µM each time.

Turning to `Cc1ccc(S(=O)(=O)[N-]C2C(=O)c3ccccc3C(=O)C2[n+]2cccc(C(N)=O)c2)cc1` (stereo not drawn), the TGI in assay [1] is 59.4 µM; in assay [2] it was > 100 µM; in [3], 36 µM; in assay [4] it was > 100 µM; in assay [5], > 100 µM; in [10] it was > 100 µM. Besides, the TGI in [6], in assay [7] and in [9] was > 100 µM each time.

`CCOC(OCC)c1ccc(/C=C/c2cc(OC)c(OC)c(OC)c2)cc1`: the TGI in [1] worked out at 33.5 µM; in assay [2] it was 32.2 µM; in assay [3] it was 30.7 µM; in assay [5] it was 71.8 µM; in assay [10] it was 56.6 µM; in assay [7] it was 40.9 µM. Moreover, the TGI in assay [8] stood at 43.8 µM; in [9], 30.1 µM.

Take `NC1=CC(C(=O)c2ccncc2)c2nc3ccccc3nc21` (stereo not drawn): the TGI in assay [1], in [2], in [3], in [4], in assay [5] and in assay [10] was > 100 µM in each case. The TGI in [6], in assay [7] and in assay [8] was > 100 µM each time.

Take `COc1cccc(-c2cccc(SC)n2)n1`: the TGI was 40.2 µM in [1]; > 100 µM in [2]; > 100 µM in [3]; > 100 µM in assay [4]; > 100 µM in assay [10]; > 100 µM in [6]. In addition, the TGI came to 63 µM in assay [7] and 31 µM in assay [9].

Regarding `CO[C@@](c1ccccc1)(c1nc(C#N)c(N)o1)C(F)(F)F`, the TGI in assay [1], in assay [2], in assay [3], in assay [4], in assay [10] and in assay [6] was > 100 µM each time. The TGI in [7] and in assay [8] was > 100 µM each time.

Turning to `COc1ccc(-n2c3c(c4cc(O)ccc42)C(=O)c2ccccc2C3=O)cc1`, the TGI in assay [1] is > 100 µM; in assay [3], 1.25 µM; in assay [4], > 100 µM; in assay [5], 14.8 µM; in [10], 12.7 µM; in [6], > 100 µM. Also, the TGI in assay [7] is 18 µM; in assay [8], > 100 µM; in assay [9] it was > 100 µM.

On to `O=C1Nc2ccccc2[C@]12C[C@H]2c1ccccn1`, for which the TGI in assay [1], in assay [2], in [3], in assay [4], in [5] and in [10] was > 100 µM in each case. For the same compound, the TGI in [6], in assay [7] and in assay [8] was > 100 µM in each case.

In the case of `COc1ccc(/C=C2\N=C(c3ccccc3)N(Nc3nnc(NN4C(=O)/C(=C/c5ccc(OC)cc5)N=C4c4ccccc4)c4ccccc34)C2=O)cc1`, the TGI in [1] is > 100 µM; in assay [2], > 100 µM; in assay [3], > 100 µM; in assay [5], > 100 µM; in [10] it was > 100 µM; in [6] it was 54.3 µM. In addition, the TGI in assay [7] was > 100 µM; in assay [9] it was 61.4 µM.

Turning to `CCCC(=O)N/S(=N/S(=O)(=O)c1ccc(Cl)cc1)C(Cl)(Cl)Cl` (stereo not drawn), the TGI in [2], in [3], in assay [4], in [5], in [10] and in assay [6] was > 100 µM throughout. Further, the TGI in assay [7], in [8] and in [9] was > 100 µM each time.

In the case of `CCOC(=O)c1nnsc1NC(=O)Nc1ccc(Cl)cc1`, the TGI is > 100 µM in assay [1]; > 100 µM in assay [2]; 70.5 µM in [3]; > 100 µM in [4]; > 100 µM in [5]; > 100 µM in assay [10]. In addition, the TGI in assay [6], in assay [7] and in [8] was > 100 µM in each case.

For the compound `Cc1cn(CC2=NCC(C)(C)CN2)c(=O)[nH]c1=O`, the TGI in assay [1], in [2], in assay [3], in assay [4], in [5] and in [10] was > 100 µM throughout. In addition, the TGI in assay [7], in [8] and in assay [9] was > 100 µM each time.
